# From ChEMBL document CHEMBL6096632, “Synthesis and evaluation of N-arylindazole-3-carboxamide derivatives as novel antiviral agents against SARS-CoV-2” (Bioorg Med Chem Lett, 2024)
# Experiments:
# [1] = Cytotoxicity against African green monkey Vero cells incubated for 24 hrs by WST reagent based EZ-cytox assay; type: toxicity, cell-based; conditions: chlorocebus sabaeus
# SARS-CoV-2 = test: Antiviral activity against SARS-CoV-2 expressing nucleocapsid protein infected in African green monkey Vero cells assessed as inhibition of viral growth by Hoechst 33342 staining based immunofluorescence analysis; type: functional, organism-based; conditions: Severe acute respiratory syndrome coronavirus 2, Vero
# [2] = Selectivity index, ratio of CC50 for African green monkey Vero cells to EC50 for antiviral activity against SARS-CoV-2 expressing nucleocapsid protein infected in African green monkey Vero cells; type: toxicity, cell-based; conditions: read-out: Ratio CC50/EC50
# [3] = test system: Middle East respiratory syndrome-related coronavirus; test: Antiviral activity against MERS-CoV expressing spike protein infected in African green monkey Vero cells assessed as inhibition of viral growth by Hoechst 33342 staining based immunofluorescence analysis; type: functional, organism-based
# CYP2C19 = CYP2C19 (Homo sapiens, UniProt P33261); test: Inhibition of CYP2C19 in human liver microsomes using S-mephenytoin as substrate at 10 uM preincubated for 5 mins followed by substrate and NADPH addition and measured after 20 mins by HPLC-MS/MS analysis; type: ADME, Microsome; conditions: probe S-mephenytoin, time 25 min
# CYP2C9 = CYP2C9 (Homo sapiens, UniProt P11712); test: Inhibition of CYP2C9 in human liver microsomes using tolbutamide as substrate at 10 uM preincubated for 5 mins followed by substrate and NADPH addition and measured after 20 mins by HPLC-MS/MS analysis; type: ADME, Microsome; conditions: probe tolbutamide, time 25 min
# CYP1A2 = target: T1, CYP1A2 (Homo sapiens, UniProt P05177); test: Inhibition of CYP1A2 in human liver microsomes using phenacetin as substrate at 10 uM preincubated for 5 mins followed by substrate and NADPH addition and measured after 20 mins by HPLC-MS/MS analysis; type: ADME, Microsome; conditions: probe phenacetin, time 25 min
# T1 sequence (P05177 whole entry): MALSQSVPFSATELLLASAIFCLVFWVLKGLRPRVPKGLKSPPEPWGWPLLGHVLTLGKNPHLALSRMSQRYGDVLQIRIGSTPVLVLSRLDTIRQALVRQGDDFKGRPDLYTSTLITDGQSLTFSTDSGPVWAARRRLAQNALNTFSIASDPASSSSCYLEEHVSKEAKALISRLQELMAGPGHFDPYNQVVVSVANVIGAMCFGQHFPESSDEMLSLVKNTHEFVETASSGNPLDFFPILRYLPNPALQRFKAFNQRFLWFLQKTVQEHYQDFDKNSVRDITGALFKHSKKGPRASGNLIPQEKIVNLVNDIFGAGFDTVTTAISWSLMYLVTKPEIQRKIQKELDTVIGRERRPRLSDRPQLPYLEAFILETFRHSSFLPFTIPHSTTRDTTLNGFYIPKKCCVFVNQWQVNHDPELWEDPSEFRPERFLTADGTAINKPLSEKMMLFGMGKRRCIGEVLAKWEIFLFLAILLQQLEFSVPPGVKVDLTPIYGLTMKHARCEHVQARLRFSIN
# CYP3A4 = CYP3A4 (Homo sapiens, UniProt P08684); test: Inhibition of CYP3A4 in human liver microsomes using […] as substrate at 10 uM preincubated for 5 mins followed by substrate and NADPH addition and measured after 20 mins by HPLC-MS/MS analysis; type: ADME, Microsome; conditions: probe sorafenib, time 25 min
# CYP2D6 = CYP2D6 (Homo sapiens, UniProt P10635); test: Inhibition of CYP2D6 in human liver microsomes using dextromethorphan as substrate at 10 uM preincubated for 5 mins followed by substrate and NADPH addition and measured after 20 mins by HPLC-MS/MS analysis; type: ADME, Microsome; conditions: probe dextromethorphan, time 25 min
# hERG (KCNH2) = hERG (KCNH2) (Homo sapiens, UniProt Q12809); test: Inhibition of human ERG at 10 uM by fluorescence polarization relative to control; type: toxicity
# [4] = Cytotoxicity against mouse NIH3T3 cells incubated for 24 hrs by WST reagent based EZ-cytox assay; type: toxicity, cell-based
# [5] = Cytotoxicity against mouse L929 cells incubated for 24 hrs by WST reagent based EZ-cytox assay; type: toxicity, cell-based
# [6] = Cytotoxicity against HFL1 cells incubated for 24 hrs by WST reagent based EZ-cytox assay; type: toxicity, cell-based; conditions: human
# [7] = Metabolic stability in human liver microsomes assessed as parent compound remaining preincubated for 10 mins followed by NADPH addition and measured after 30 mins by HPLC-MS/MS analysis; type: ADME, Microsome; conditions: time 40 min, read-out: Stability
# [8] = Cytotoxicity against CHO-K1 cells incubated for 24 hrs by WST reagent based EZ-cytox assay; type: toxicity, cell-based, Cricetulus griseus; conditions: chinese hamster
# [9] = Metabolic stability in mouse liver microsomes assessed as parent compound remaining preincubated for 10 mins followed by NADPH addition and measured after 30 mins by HPLC-MS/MS analysis; type: ADME, Microsome; conditions: time 40 min, read-out: Stability
# Chain of CYP2C9 (P11712 whole entry): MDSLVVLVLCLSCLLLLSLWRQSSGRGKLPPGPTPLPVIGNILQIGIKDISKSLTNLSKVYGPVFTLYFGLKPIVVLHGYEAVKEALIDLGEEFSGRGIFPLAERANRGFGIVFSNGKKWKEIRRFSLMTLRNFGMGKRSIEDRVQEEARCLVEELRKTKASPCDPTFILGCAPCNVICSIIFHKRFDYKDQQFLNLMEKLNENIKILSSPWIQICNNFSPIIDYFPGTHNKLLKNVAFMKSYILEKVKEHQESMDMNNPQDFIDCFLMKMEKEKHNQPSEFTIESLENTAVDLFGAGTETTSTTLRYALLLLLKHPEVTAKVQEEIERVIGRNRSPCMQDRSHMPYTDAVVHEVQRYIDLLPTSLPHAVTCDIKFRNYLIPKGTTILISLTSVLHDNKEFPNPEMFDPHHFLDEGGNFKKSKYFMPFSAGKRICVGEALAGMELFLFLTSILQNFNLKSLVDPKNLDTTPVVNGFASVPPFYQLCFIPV
# Chain of hERG (KCNH2) (Q12809 whole entry): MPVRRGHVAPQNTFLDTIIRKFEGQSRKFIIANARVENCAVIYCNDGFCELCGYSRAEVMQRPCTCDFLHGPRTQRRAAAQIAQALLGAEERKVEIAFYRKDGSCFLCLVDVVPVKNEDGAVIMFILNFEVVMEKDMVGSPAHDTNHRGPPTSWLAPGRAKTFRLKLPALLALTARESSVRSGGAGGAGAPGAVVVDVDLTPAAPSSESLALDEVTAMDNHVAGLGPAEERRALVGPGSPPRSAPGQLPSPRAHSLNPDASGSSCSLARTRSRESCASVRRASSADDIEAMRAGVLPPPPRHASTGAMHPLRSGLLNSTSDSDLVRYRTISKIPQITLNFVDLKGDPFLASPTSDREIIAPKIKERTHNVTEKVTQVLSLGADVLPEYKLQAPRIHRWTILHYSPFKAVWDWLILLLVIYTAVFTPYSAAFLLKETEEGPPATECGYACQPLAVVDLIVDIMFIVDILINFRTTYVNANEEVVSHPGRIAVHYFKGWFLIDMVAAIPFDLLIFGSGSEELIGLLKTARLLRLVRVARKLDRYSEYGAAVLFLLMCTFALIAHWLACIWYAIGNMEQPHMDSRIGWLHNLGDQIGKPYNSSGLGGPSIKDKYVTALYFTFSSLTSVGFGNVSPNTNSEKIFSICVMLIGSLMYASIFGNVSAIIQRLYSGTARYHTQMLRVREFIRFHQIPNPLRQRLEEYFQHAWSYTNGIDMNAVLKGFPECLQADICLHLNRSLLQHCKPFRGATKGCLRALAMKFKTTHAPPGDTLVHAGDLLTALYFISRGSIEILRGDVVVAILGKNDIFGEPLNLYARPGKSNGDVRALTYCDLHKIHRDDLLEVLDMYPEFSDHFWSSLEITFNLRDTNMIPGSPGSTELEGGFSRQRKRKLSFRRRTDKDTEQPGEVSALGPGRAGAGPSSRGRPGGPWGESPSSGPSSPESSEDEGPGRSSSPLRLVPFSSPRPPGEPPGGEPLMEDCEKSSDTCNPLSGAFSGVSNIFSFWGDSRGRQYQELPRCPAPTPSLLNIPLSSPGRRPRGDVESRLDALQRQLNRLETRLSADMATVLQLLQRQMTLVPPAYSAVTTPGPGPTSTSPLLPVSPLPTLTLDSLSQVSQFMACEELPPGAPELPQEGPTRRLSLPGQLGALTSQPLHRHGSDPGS
# Chain of CYP2C19 (P33261 whole entry): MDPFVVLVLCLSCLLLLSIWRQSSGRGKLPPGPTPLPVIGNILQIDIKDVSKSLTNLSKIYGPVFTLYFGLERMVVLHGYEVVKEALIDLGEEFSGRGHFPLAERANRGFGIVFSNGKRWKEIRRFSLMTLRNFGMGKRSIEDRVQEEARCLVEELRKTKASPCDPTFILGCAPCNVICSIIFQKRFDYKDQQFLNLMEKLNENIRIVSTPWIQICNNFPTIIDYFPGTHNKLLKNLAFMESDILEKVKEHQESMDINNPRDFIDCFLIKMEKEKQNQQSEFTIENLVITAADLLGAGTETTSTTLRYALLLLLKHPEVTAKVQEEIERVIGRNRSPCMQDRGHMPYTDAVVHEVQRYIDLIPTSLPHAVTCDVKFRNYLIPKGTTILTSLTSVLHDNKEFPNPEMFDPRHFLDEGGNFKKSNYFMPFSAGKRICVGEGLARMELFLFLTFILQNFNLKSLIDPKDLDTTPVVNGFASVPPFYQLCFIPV
# Chain of CYP2D6 (P10635 whole entry): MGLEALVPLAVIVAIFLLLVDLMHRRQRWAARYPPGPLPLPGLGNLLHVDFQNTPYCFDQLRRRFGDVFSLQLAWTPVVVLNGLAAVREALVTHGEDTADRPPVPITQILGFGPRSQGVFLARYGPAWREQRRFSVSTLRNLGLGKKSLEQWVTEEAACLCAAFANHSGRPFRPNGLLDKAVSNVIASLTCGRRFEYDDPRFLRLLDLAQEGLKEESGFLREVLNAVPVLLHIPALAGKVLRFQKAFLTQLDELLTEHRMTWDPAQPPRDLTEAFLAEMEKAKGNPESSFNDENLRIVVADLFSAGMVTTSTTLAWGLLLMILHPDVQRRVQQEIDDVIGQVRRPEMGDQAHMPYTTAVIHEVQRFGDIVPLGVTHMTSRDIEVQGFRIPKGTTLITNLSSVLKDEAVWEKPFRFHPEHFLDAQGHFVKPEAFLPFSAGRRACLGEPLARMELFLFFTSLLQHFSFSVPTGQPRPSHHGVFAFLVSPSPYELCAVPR
# Chain of CYP3A4 (P08684 whole entry): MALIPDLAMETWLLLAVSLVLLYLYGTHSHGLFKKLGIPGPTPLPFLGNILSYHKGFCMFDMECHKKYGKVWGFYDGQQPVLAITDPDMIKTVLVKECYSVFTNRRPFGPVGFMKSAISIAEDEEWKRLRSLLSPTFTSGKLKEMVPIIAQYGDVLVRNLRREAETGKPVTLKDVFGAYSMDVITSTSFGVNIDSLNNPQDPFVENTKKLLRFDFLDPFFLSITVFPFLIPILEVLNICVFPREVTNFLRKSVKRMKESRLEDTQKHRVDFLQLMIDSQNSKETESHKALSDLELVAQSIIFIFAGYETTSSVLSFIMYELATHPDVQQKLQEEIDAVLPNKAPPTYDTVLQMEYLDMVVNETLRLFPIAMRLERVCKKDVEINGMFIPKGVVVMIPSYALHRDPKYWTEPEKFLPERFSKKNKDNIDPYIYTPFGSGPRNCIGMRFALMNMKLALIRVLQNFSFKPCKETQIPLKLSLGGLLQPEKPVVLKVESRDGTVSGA
Structure (SMILES),CC50 at 24 h [1] [µM],EC50 (SARS-CoV-2) [µM],selectivity ratio [2],also measured
CCC(CC)COC(=O)[C@H](C)N[P@](=O)(OC[C@H]1O[C@@](C#N)(c2ccc3c(N)ncnn23)[C@H](O)[C@@H]1O)Oc1ccccc1,> 25,–,–,–
O=C(Nc1cc(Cl)cc(Cl)c1)c1n[nH]c2ccccc12,> 25,> 25,1,EC50 [3]: 1.7 µM
Cc1cc(C)cc(NC(=O)c2n[nH]c3ccc(Cl)cc23)c1,> 25,2.3,> 11.1,–
O=C(Nc1ccccc1Cl)c1n[nH]c2ccc(Cl)cc12,> 25,> 25,1,–
O=C(Nc1cc(Cl)cc(Cl)c1)c1n[nH]c2ccc(Cl)cc12,> 20,0.69,> 36,"inhibition at 20 min, 10 µM (CYP2C19): 8%; inhibition at 20 min, 10 µM (CYP2C9): 14%; inhibition at 20 min, 10 µM (CYP1A2): 11%; inhibition at 20 min, 10 µM (CYP3A4): 54%; inhibition at 20 min, 10 µM (CYP2D6): 1%; inhibition at 10 µM (hERG (KCNH2)): < 1%; CC50 at 24 h [4]: > 100 µM; CC50 at 24 h [5]: > 100 µM; CC50 at 24 h [6]: > 100 µM; remaining at 0.5 h [7]: 97%; CC50 at 24 h [8]: > 100 µM; remaining at 0.5 h [9]: 48%"
O=C(Nc1ccc(Cl)cc1)c1n[nH]c2ccc(Cl)cc12,> 25,> 25,1,–
O=C(Nc1ccccc1F)c1n[nH]c2ccc(Cl)cc12,> 25,> 25,1,–
O=C(NC1CCCCC1)c1n[nH]c2ccc(Cl)cc12,> 25,> 25,1,–
O=C(Nc1cc(Cl)cc(Cl)c1)c1n[nH]c2cc(F)ccc12,> 25,1.2,> 21.4,–
N#Cc1ccc(NC(=O)c2n[nH]c3ccc(Cl)cc23)cc1,> 25,> 25,1,–
O=C(Nc1cccc(C(F)(F)F)c1)c1n[nH]c2ccc(Cl)cc12,> 25,2.8,> 8.8,–
O=C(Nc1cccc([N+](=O)[O-])c1)c1n[nH]c2ccc(Cl)cc12,> 25,> 25,1,–
N#Cc1cccc(NC(=O)c2n[nH]c3ccc(Cl)cc23)c1,> 25,1.8,> 13.7,–
N#Cc1ccccc1NC(=O)c1n[nH]c2ccc(Cl)cc12,> 25,> 25,1,–
Cc1cccc(NC(=O)c2n[nH]c3ccc(Cl)cc23)c1,> 25,> 25,1,–
O=C(Nc1cc(Cl)cc(Cl)c1)c1n[nH]c2cc(Cl)ccc12,> 25,> 25,1,–
O=C(Nc1cc(Cl)cc(Cl)c1)c1n[nH]c2ccc(F)cc12,> 25,> 25,1,–
O=C(Nc1cccc(OC(F)(F)F)c1)c1n[nH]c2ccc(Cl)cc12,> 25,5.5,> 4.6,–
CCCCNC(=O)c1n[nH]c2ccc(Cl)cc12,> 25,> 25,1,–
O=C(Nc1cccc(F)c1)c1n[nH]c2ccc(Cl)cc12,> 25,> 25,1,–
O=C(Nc1ccc(F)cc1)c1n[nH]c2ccc(Cl)cc12,> 25,> 25,1,–
